# Data reported in US20150094474A1, “AGRICULTURAL CHEMICALS” (Redx Pharma Ltd., priority 2012, published 2015).
# Tested on: peas
# Assay: Herbicidal bioassay, peas (% necrosis)
# Type: in vivo
# Procedure, shortened: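 Scoring of % necrosis followed EPPO guideline PP1/135 at specified growth intervals, five replicates per species and treatment. Plants at the 2-4 true leaf stage received Potter-tower sprays of DMSO-diluted compounds across six levels from 0.0001% to 0.05%, with water and DMSO controls.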
smiles,measurement,setting,value
CCOC(=O)C(C)Oc1ccc(Oc2ccc(C(F)(F)F)cn2)cc1 (stereo not drawn) [Fluazifop Ethyl ester (62)],Sum of % necrosis in Peas,"Dose 0.000001, Day 0",C (less than 50% necrosis)
same,Sum of % necrosis in Peas,"Dose 0.000001, Day 1",C (less than 50% necrosis)
same,Sum of % necrosis in Peas,"Dose 0.000001, Day 3",C (less than 50% necrosis)
same,Sum of % necrosis in Peas,"Dose 0.000001, Day 7",C (less than 50% necrosis)
same,Sum of % necrosis in Peas,"Dose 0.000001, Day 10",C (less than 50% necrosis)
same,Sum of % necrosis in Peas,"Dose 0.000001, Day 14",C (less than 50% necrosis)
same,Sum of % necrosis in Peas,"Dose 0.000001, Day 21",C (less than 50% necrosis)
same,Sum of % necrosis in Peas,"Dose 0.000005, Day 0",C (less than 50% necrosis)
same,Sum of % necrosis in Peas,"Dose 0.000005, Day 1",C (less than 50% necrosis)
same,Sum of % necrosis in Peas,"Dose 0.000005, Day 3",C (less than 50% necrosis)
same,Sum of % necrosis in Peas,"Dose 0.000005, Day 7",C (less than 50% necrosis)
same,Sum of % necrosis in Peas,"Dose 0.000005, Day 10",C (less than 50% necrosis)
same,Sum of % necrosis in Peas,"Dose 0.000005, Day 14",B (50%-80% necrosis)
same,Sum of % necrosis in Peas,"Dose 0.000005, Day 21",B (50%-80% necrosis)
same,Sum of % necrosis in Peas,"Dose 0.00001, Day 0",C (less than 50% necrosis)
same,Sum of % necrosis in Peas,"Dose 0.00001, Day 1",C (less than 50% necrosis)
same,Sum of % necrosis in Peas,"Dose 0.00001, Day 3",C (less than 50% necrosis)
same,Sum of % necrosis in Peas,"Dose 0.00001, Day 7",C (less than 50% necrosis)
same,Sum of % necrosis in Peas,"Dose 0.00001, Day 10",B (50%-80% necrosis)
same,Sum of % necrosis in Peas,"Dose 0.00001, Day 14",A (over 80% necrosis)
same,Sum of % necrosis in Peas,"Dose 0.00001, Day 21",A (over 80% necrosis)
same,Sum of % necrosis in Peas,"Dose 0.00005, Day 0",C (less than 50% necrosis)
same,Sum of % necrosis in Peas,"Dose 0.00005, Day 1",C (less than 50% necrosis)
same,Sum of % necrosis in Peas,"Dose 0.00005, Day 3",C (less than 50% necrosis)
same,Sum of % necrosis in Peas,"Dose 0.00005, Day 7",C (less than 50% necrosis)
same,Sum of % necrosis in Peas,"Dose 0.00005, Day 10",B (50%-80% necrosis)
same,Sum of % necrosis in Peas,"Dose 0.00005, Day 14",A (over 80% necrosis)
same,Sum of % necrosis in Peas,"Dose 0.00005, Day 21",A (over 80% necrosis)
same,Sum of % necrosis in Peas,"Dose 0.0001, Day 0",C (less than 50% necrosis)
same,Sum of % necrosis in Peas,"Dose 0.0001, Day 1",C (less than 50% necrosis)
same,Sum of % necrosis in Peas,"Dose 0.0001, Day 3",C (less than 50% necrosis)
same,Sum of % necrosis in Peas,"Dose 0.0001, Day 7",C (less than 50% necrosis)
same,Sum of % necrosis in Peas,"Dose 0.0001, Day 10",B (50%-80% necrosis)
same,Sum of % necrosis in Peas,"Dose 0.0001, Day 14",A (over 80% necrosis)
same,Sum of % necrosis in Peas,"Dose 0.0001, Day 21",A (over 80% necrosis)
same,Sum of % necrosis in Peas,"Dose 0.0005, Day 0",C (less than 50% necrosis)
same,Sum of % necrosis in Peas,"Dose 0.0005, Day 1",C (less than 50% necrosis)
same,Sum of % necrosis in Peas,"Dose 0.0005, Day 3",C (less than 50% necrosis)
same,Sum of % necrosis in Peas,"Dose 0.0005, Day 7",C (less than 50% necrosis)
same,Sum of % necrosis in Peas,"Dose 0.0005, Day 10",C (less than 50% necrosis)
same,Sum of % necrosis in Peas,"Dose 0.0005, Day 14",C (less than 50% necrosis)
same,Sum of % necrosis in Peas,"Dose 0.0005, Day 21",A (over 80% necrosis)
